How the values were obtained:
Format in all cases: cell-based
SN12C = experiment: Cytotoxicity against human SN12C cells assessed as effect on cell growth at 10 uM incubated for 48 hrs by sulforhodamine B assay
SF-268 = experiment: Cytotoxicity against human SF268 cells assessed as effect on cell growth at 10 uM incubated for 48 hrs by sulforhodamine B assay; conditions: sf-268, 48 h
NCI/ADR-RES = experiment: Cytotoxicity against human NCI/ADR-RES cells assessed as effect on cell growth at 10 uM incubated for 48 hrs by sulforhodamine B assay
RPMI-8226 = experiment: Cytotoxicity against human RPMI8226 cells assessed as effect on cell growth at 10 uM incubated for 48 hrs by sulforhodamine B assay; conditions: rpmi-8226, 48 h
LOX IMVI = experiment: Cytotoxicity against human LOXIMVI cells assessed as effect on cell growth at 10 uM incubated for 48 hrs by sulforhodamine B assay
SF-539 = experiment: Cytotoxicity against human SF539 cells assessed as effect on cell growth at 10 uM incubated for 48 hrs by sulforhodamine B assay; conditions: sf-539, 48 h
HCT-116 = experiment: Cytotoxicity against human HCT116 cells assessed as effect on cell growth at 10 uM incubated for 48 hrs by sulforhodamine B assay; conditions: hct-116, 48 h
MOLT-4 = experiment: Cytotoxicity against human MOLT4 cells assessed as effect on cell growth at 10 uM incubated for 48 hrs by sulforhodamine B assay; conditions: molt-4, 48 h
K562 = experiment: Cytotoxicity against human K562 cells assessed as effect on cell growth at 10 uM incubated for 48 hrs by sulforhodamine B assay; conditions: k562, 48 h
UACC-257 = experiment: Cytotoxicity against human UACC257 cells assessed as effect on cell growth at 10 uM incubated for 48 hrs by sulforhodamine B assay; conditions: uacc-257, 48 h
OVCAR-3 = experiment: Cytotoxicity against human OVCAR3 cells assessed as effect on cell growth at 10 uM incubated for 48 hrs by sulforhodamine B assay; conditions: ovcar-3, 48 h
A498 = experiment: Cytotoxicity against human A498 cells assessed as effect on cell growth at 10 uM incubated for 48 hrs by sulforhodamine B assay; conditions: a498, 48 h
CCRF-CEM = experiment: Cytotoxicity against human CCRF-CEM cells assessed as effect on cell growth at 10 uM incubated for 48 hrs by sulforhodamine B assay
SK-OV-3 = experiment: Cytotoxicity against human SKOV3 cells assessed as effect on cell growth at 10 uM incubated for 48 hrs by sulforhodamine B assay; conditions: sk-ov-3, 48 h
HOP-62 = experiment: Cytotoxicity against human HOP62 cells assessed as effect on cell growth at 10 uM incubated for 48 hrs by sulforhodamine B assay; conditions: hop-62, 48 h
OVCAR-4 = experiment: Cytotoxicity against human OVCAR4 cells assessed as effect on cell growth at 10 uM incubated for 48 hrs by sulforhodamine B assay; conditions: ovcar-4, 48 h
HT-29 = experiment: Cytotoxicity against human HT-29 cells assessed as effect on cell growth at 10 uM incubated for 48 hrs by sulforhodamine B assay; conditions: ht-29, 48 h
SW-620 = experiment: Cytotoxicity against human SW620 cells assessed as effect on cell growth at 10 uM incubated for 48 hrs by sulforhodamine B assay; conditions: sw-620, 48 h
SK-MEL-28 = experiment: Cytotoxicity against human SK-MEL-28 cells assessed as effect on cell growth at 10 uM incubated for 48 hrs by sulforhodamine B assay; conditions: sk-mel-28, 48 h
A549 = experiment: Cytotoxicity against human A549/ATCC cells assessed as effect on cell growth at 10 uM incubated for 48 hrs by sulforhodamine B assay; conditions: a549, 48 h

Measured: Activity

O=C(NCc1ccccc1Cl)[C@@H]1CCC(=O)N1c1ccccc1
Non-Toxic: all assays above

O=C1CCCC(C(=O)NCc2ccc(Cl)cc2Cl)N1 (stereo not given)
Non-Toxic: all assays above

CN(C)/C=C1\C[C@H]2C(=O)N(Cc3ccc(Cl)cc3Cl)C(N(C)C)N2C1=O (stereo not given in full)
Non-Toxic: all assays above

O=C(Nc1ccc(Cl)cc1Cl)[C@@H]1CCC(=O)N1Cc1ccccc1Cl
Non-Toxic: all assays above

O=C1N[C@H](C(=O)NCc2ccc(Cl)cc2Cl)C/C1=N\O (stereo in doubt)
Non-Toxic: all assays above

O=C(NCc1ccc(Cl)cc1Cl)[C@@H]1CCC(=O)N1c1nccs1
Non-Toxic: all assays above

O=C(NCc1ccc(Cl)cc1Cl)[C@@H]1CCC(=O)N1c1ccc(Cl)cc1
Non-Toxic: all assays above

O=C(NCc1ccccc1Cl)[C@@H]1CCC(=O)N1Cc1ccc(Cl)cc1
Non-Toxic: all assays above

O=C(NCc1ccc(Cl)cc1Cl)[C@@H]1CCC(=O)N1c1ccsc1
Non-Toxic: all assays above

O=C(NCCc1ccccc1)[C@@H]1CCC(=O)N1Cc1ccc(Cl)cc1Cl
Non-Toxic: all assays above

COc1ccc(NC(=O)[C@@H]2CCC(=O)N2)cc1OC
Non-Toxic: all assays above

O=C(NCc1ccc(Cl)cc1Cl)c1ccccn1
Non-Toxic: all assays above

COC(=O)[C@@H]1C/C(=C\NCc2ccc(Cl)cc2Cl)C(=O)N1C(=O)OC
Non-Toxic: all assays above

COc1ccc(CNC(=O)[C@@H]2CCC(=O)N2Cc2ccc(Cl)cc2Cl)c(OC)c1
Non-Toxic: all assays above
